Reference: patent US5149711A, “2-cyclopentenone derivatives” (Teijin Limited, priority 1988, dated 1992)
In brackets after ≈: the same amount, converted by molar mass.

Legend:
L1210 leukemia cells = assay: Measurement of the action of inhibiting proliferation of L1210 leukemia cell; type: cell-based; conditions: Mus musculus, L1210, 96 h; RPMI medium with 10% FCS, 37° C., 4 days, trypan blue count of surviving cells
Experimental: (1) Measurement of the action of inhibiting Proliferation of L1210 leukemia cell
L1210 leukemia cells were added to an RPMI medium containing 10% FCS (fetal calf serum), and the concentration of the cells was adjusted to […]. Each of the test compounds shown in Table I was dissolved in 99.5% ethanol. Prior to use, the final concentration of the ethanol solution was adjusted to less than 0.1%, and it was added to the culture medium. The culture medium was then maintained at 37° C. in a stationary condition for 4 days. After the cultivation, the number of surviving cells was measured by dyeing with trypan blue. As a control, 0.1% ethanol was used. A dose-reaction curve plotted from the ratios of proliferation against the control, and IC50 was determined.

[1] = test system: P388 mouse leukemia cells; assay: Measurement of the antitumor effect on P388 mouse leukemia tumor (increase of life span); type: in vivo; conditions: intraperitoneal, 9 days, BDF1 mice
Experimental: (2) Measurement of the antitumor effect on P338 mouse leukemia tumor
1×10^6 P388 mouse leukemia cells were intraperitoneally administered to BDF1 mice. After the lapse of 24 hours, each of the test compounds shown in Table II was intraperitoneally administered to the mice for 9 days. The periods of survival of these animals were examined and the increase of their life span (ILS %) was determined.

B16 melanoma = assay: Measurement of the antitumor effect on B16 melanoma mouse tumor (tumor weight); type: in vivo; conditions: intraperitoneal, day 1-9, tumor weight on day 18, BDF1 mice
Experimental: (3) Measurement of the antitumor effect on B16 melanoma mouise tumor
For B16 melanoma, BDF1 mice were implanted subcutaneously with 0.2 ml of a 10% tumor homogenate in saline in the left flank. The test compounds were each given intraperitoneally on day 1-9. The activity was assessed by measuring the tumor weight on day 18.

Structure (SMILES)	IC50 (L1210 leukemia cells) [µg/mL]	increase of life span (ILS) ([1]; 5 mg/kg/day) [%]	increase of life span (ILS) ([1]; 10 mg/kg/day) [%]	increase of life span (ILS) ([1]; 20 mg/kg/day) [%]	Proliferation inhibitory rate (B16 melanoma; 5 mg/kg/day) [%]	Proliferation inhibitory rate (B16 melanoma; 10 mg/kg/day) [%]
CC(=O)OC[C@@H](OC(C)=O)[C@H](/C=C/C=C1C(=O)C=CC1(O)CCCCOc1ccccc1)OC(C)=O (stereo partly drawn) [5-[(4S,5R)-4,5,6-triacetoxy-2-hexenylidene]-4-(4-phenoxybutyl)-4-hydroxy-2-cyclopentenone]	0.1 (≈ 0.2 µM)					
O=C1C=CC(O)(CCCCOc2ccccc2)C1=C/C=C/[C@H](O)[C@H](O)CO (stereo partly drawn) [5-[(4S,5R)-4,5,6-trihydroxy-2-hexenylidene]-4-(4-phenoxybutyl)-4-hydroxy-2-cyclopentenone]	0.8 (≈ 2.14 µM)	24.5	32.7	44.9		
CC(=O)OC[C@@H](O)[C@H](/C=C/C=C1C(=O)C=CC1(O)CCCCOc1ccccc1)OC(C)=O (stereo partly drawn) [5-[(4S,5R)-4,6-diacetoxy-5-hydroxy-2-hexenylidene]-4-(4-phenoxybutyl)-4-hydroxy-2-cyclopentenone]	0.2 (≈ 0.436 µM)				9.6	45.5
O=C1C=CC(O)(CCCCOc2ccccc2)/C1=C\C=C\C(O)CCCO (stereo not shown) [5-[(E)-4,7-dihydroxy-(2E)-heptenylidene]-4-(4-phenoxybutyl)-4-hydroxy-2-cyclopentenone, reference compound]		21.4	31.2	-69.2	-13.5	32.7
